Ends that are not written are not given here.
Columns and labels:
Type in all cases: cell-based, human
[1] = test system: peptide-pulsed T2; assay: IFN-gamma ELISPOT assay on CTLs induced with peptide (HLA-A*0201); settings: CTLs from HLA-A*0201 positive donor, 3 rounds of stimulation, day 21; vs control wells without peptide
Description: Monocyte-derived dendritic cells (DCs) were used as antigen-presenting cells to induce cytotoxic T lymphocyte (CTL) responses against peptides presented on human leukocyte antigen (HLA). DCs were generated in vitro as described elsewhere (Nakahara S et al., Cancer Res 2003 Jul. 15, 63(14): 4112-8). Specifically, peripheral blood mononuclear cells (PBMCs) isolated from a normal volunteer (HLA-A*0201 positive) by Ficoll-Plaque (Pharmacia) solution were separated by adherence to a plastic tissue culture dish (Becton Dickinson) so as to enrich them as the monocyte fraction. The monocyte-enriched population was cultured in the presence of 1,000 U/ml of granulocyte-macrophage colony-stimulating factor (R&D System) and 1,000 U/ml of interleukin (IL)-4 (R&D System) in AIM-V Medium (Invitrogen) containing 2% heat-inactivated autologous serum (AS). After 7 days of culture, the cytokine-induced DCs were pulsed with 20 micro-g/ml of each of the synthesized peptides in the presence of 3 micro-g/ml of beta 2-microglobulin for 3 hrs at 37 degrees C. in AIM-V Medium. The generated cells appeared to express DC-associated molecules, such as CD80, CD83, CD86 and HLA class II, on their cell surfaces (data not shown). These peptide-pulsed DCs were then inactivated by X-irradiated (20 Gy) and mixed at a 1:20 ratio with autologous CD8+ T cells, obtained by positive selection with CD8 positive Isolation Kit (Dynal). These cultures were set up in 48-well plates (Corning); each well contained 1.5×10^4 peptide-pulsed DCs, 3×10^5 CD8+ T cells and 10 ng/ml of IL-7 (R&D System) in 0.5 ml of AIM-V/2% AS medium. Three days later, these cultures were supplemented with IL-2 (CHIRON) to a final concentration of 20 IU/ml. On days 7 and 14, the T cells were further stimulated with the autologous peptide-pulsed DCs. The DCs were prepared each time by the same way described above. CTL was tested against peptide-pulsed T2 cells after the 3rd round of peptide stimulation on day 21 (Tanaka H et al., Br J Cancer 2001 Jan. 5, 84(1): 94-9; Umano Y et al., Br J Cancer 2001 Apr. 20, 84(8): 1052-7; Uchida N et al., Clin Cancer Res 2004 Dec. 15, 10(24): 8577-86; Suda T et al., Cancer Sci 2006 May, 97(5): 411-9; Watanabe T et al., Cancer Sci 2005 August, 96(8): 498-506).
(§1) To examine specific CTL activity, interferon (IFN)-gamma enzyme-linked immunospot (ELISPOT) assay and IFN-gamma enzyme-linked immunosorbent assay (ELISA) were performed. Specifically, peptide-pulsed T2 (1×10^4/well) was prepared as stimulator cells. Cultured cells in 48 wells were used as responder cells. IFN-gamma ELISPOT assay and IFN-gamma ELISA assay were performed under manufacture procedure.

[2] = test system: peptide-pulsed T2; assay: IFN-gamma ELISA assay of CTL clones (HLA-A*0201); settings: clones by limiting dilution; target cells pulsed with peptide
Protocol: The dilutions were made to have 0.3, 1, and 3 CTLs/well in 96 round-bottomed micro titer plate (Nalge Nunc International). CTLs were cultured with 1×10^4 cells/well of 2 kinds of human B-lymphoblastoid cell lines, 30 ng/ml of anti-CD3 antibody, and 125 U/ml of IL-2 in a total of 150 micro-l/well of AIM-V Medium containing 5% AS. 50 micro-1/well of IL-2 were added to the medium 10 days later so to reach a final concentration of 125 U/ml IL-2. CTL activity was tested on the 14th day, and CTL clones were expanded using the same method as described above (Uchida N et al., Clin Cancer Res 2004 Dec. 15, 10(24): 8577-86; Suda T et al., Cancer Sci 2006 May, 97(5): 411-9; Watanabe T et al., Cancer Sci 2005 August, 96(8): 498-506).
as §1

[3] = test system: peptide-pulsed T2; assay: IFN-gamma ELISA assay of CTL lines (HLA-A*0201); settings: target cells pulsed with corresponding peptide vs without peptide pulse
Protocol: CTLs were expanded in culture using the method similar to the one described by Riddell et al. (Walter E A et al., N Engl J Med 1995 Oct. 19, 333(16): 1038-44; Riddell S R et al., Nat Med 1996 February, 2(2): 216-23). A total of 5×10^4 CTLs were suspended in 25 ml of AIM-V/5% AS medium with 2 kinds of human B-lymphoblastoid cell lines, inactivated by Mitomycin C, in the presence of 40 ng/ml of anti-CD3 monoclonal antibody (Pharmingen). One day after initiating the cultures, 120 IU/ml of IL-2 were added to the cultures. The cultures were fed with fresh AIM-V/5% AS medium containing 30 IU/ml of IL-2 on days 5, 8 and 11 (Tanaka H et al., Br J Cancer 2001 Jan. 5, 84(1): 94-9; Umano Y et al., Br J Cancer 2001 Apr. 20, 84(8): 1052-7; Uchida N et al., Clin Cancer Res 2004 Dec. 15, 10(24): 8577-86; Suda T et al., Cancer Sci 2006 May, 97(5): 411-9; Watanabe T et al., Cancer Sci 2005 August, 96(8): 498-506).
as §1

Substance | Peptide specific CTL activity: IFN-gamma production by ELISPOT [1] | IFN-gamma production of CTL clones by ELISA [2] | IFN-gamma production of CTL lines by ELISA [3]
ALVRFFEAV [SEQ ID NO: 76] | potent IFN-gamma production | Potent IFN-gamma productions | potent IFN-gamma production
FLCILAKVV [SEQ ID NO: 84] | potent IFN-gamma production | Potent IFN-gamma productions | potent IFN-gamma production
FLLLaAVAEV (FLLLAAVAEV; not fully specified; printed as FLLLaAVAEV) [SEQ ID NO: 101] | potent IFN-gamma production | Potent IFN-gamma productions | potent IFN-gamma production
FLLMyAQKNL (FLLMYAQKNL; not fully specified; printed as FLLMyAQKNL) [SEQ ID NO: 112] | potent IFN-gamma production | – | potent IFN-gamma production
FLTDsLELEL (FLTDSLELEL; not fully specified; printed as FLTDsLELEL) [SEQ ID NO: 111] | potent IFN-gamma production | Potent IFN-gamma productions | potent IFN-gamma production
GLQNfFSLFL (GLQNFFSLFL; not fully specified; printed as GLQNfFSLFL) [SEQ ID NO: 110] | potent IFN-gamma production | Potent IFN-gamma productions | potent IFN-gamma production
KLTRLLFNL [SEQ ID NO: 65] | potent IFN-gamma production | Potent IFN-gamma productions | potent IFN-gamma production
LLCDlISLSL (LLCDLISLSL; not fully specified; printed as LLCDlISLSL) [SEQ ID NO: 123] | potent IFN-gamma production | – | potent IFN-gamma production
QQCVlFLHYV (QQCVLFLHYV; not fully specified; printed as QQCVlFLHYV) [SEQ ID NO: 113] | potent IFN-gamma production | Potent IFN-gamma productions | potent IFN-gamma production
VLFLHYVKV [SEQ ID NO: 66] | potent IFN-gamma production | Potent IFN-gamma productions | potent IFN-gamma production
WLVLeILYML (WLVLEILYML; not fully specified; printed as WLVLeILYML) [SEQ ID NO: 117] | potent IFN-gamma production | – | potent IFN-gamma production

Reference: US20120128705A1, “C6ORF167 PEPTIDES AND VACCINES CONTAINING THE SAME” (OncoTherapy Science, Inc., priority 2009, published 2012)
